Holding throughout (format): functional, cell-based
Assay [1] has as its system MDA-MB-231. Kind of assay: Antiproliferative activity against human MDA-MB-231 cells assessed as reduction in cell viability measured for 72 hrs by MTT assay. The conditions noted are these: MDA-MB-231, 72 h. A general note: Tetrazolium assays rely on reduction of a dye to a coloured formazan, in cell work by metabolically active cells.
The subject of assay [2] is HT-29. Kind of assay: Antiproliferative activity against human HT-29 cells assessed as reduction in cell viability measured for 72 hrs by MTT assay. The settings on record: HT-29, 72 h.
Assay [3] has as its system HeLa. Description: Antiproliferative activity against human HeLa cells assessed as reduction in cell viability measured for 72 hrs by MTT assay.
In assay [4] the test system is A549. Kind of assay: Antiproliferative activity against human A549 cells assessed as reduction in cell viability measured for 72 hrs by MTT assay. The conditions noted are these: A549, 72 h.
In assay [5] the test system is NCI-H460. Description: Antiproliferative activity against human NCI-H460 cells assessed as reduction in cell viability measured for 72 hrs by MTT assay. The settings on record: NCI-H460, 72 h.

SMILES strings stand for the structures.

Data on 26 molecules can be found in ChEMBL document CHEMBL5244230, “Artemisinin-derived hybrids and their anticancer activity” (Eur J Med Chem, 2020).

What is called IC50 is the concentration needed to halve the response being measured.

With `C[C@H]1[C@H](NC(=O)COCc2ccc(C(=O)/C=C/c3c(Cl)cccc3Cl)cc2)O[C@@H]2O[C@@]3(C)CC[C@H]4[C@H](C)CC[C@@H]1[C@@]24OO3`, the concentration for half-maximal inhibition (IC50) in assay [1], in assay [2], in assay [3], in assay [4] and in assay [5] was 100 nM in each case.
With `C[C@H]1[C@H](NC(=O)COCc2ccc(C(=O)/C=C/c3ccc(S(C)(=O)=O)cc3)cc2)O[C@@H]2O[C@@]3(C)CC[C@H]4[C@H](C)CC[C@@H]1[C@@]24OO3`, the IC50 in assay [1], in assay [2], in assay [3], in assay [4] and in assay [5] was 100 nM in each case.
Consider `C[C@H]1[C@@H](NC(=O)COCc2ccc(C(=O)/C=C/c3cccc(Cl)c3Cl)cc2)O[C@@H]2O[C@@]3(C)CC[C@H]4[C@H](C)CC[C@@H]1[C@@]24OO3`, for which the half-inhibitory concentration (IC50) in assay [1], in assay [2], in assay [3], in assay [4] and in assay [5] was 90 nM throughout.
Consider `C[C@H]1[C@@H](NC(=O)COCc2ccc(C(=O)/C=C/c3ccc(OC(F)(F)F)cc3)cc2)O[C@@H]2O[C@@]3(C)CC[C@H]4[C@H](C)CC[C@@H]1[C@@]24OO3`, for which the concentration for half-maximal inhibition (IC50) in assay [1], in assay [2], in assay [3], in assay [4] and in assay [5] was 90 nM throughout.
Regarding `C[C@H]1[C@@H](NC(=O)COCc2ccc(/C=C/C(=O)c3ccc(F)cc3)cc2)O[C@@H]2O[C@@]3(C)CC[C@H]4[C@H](C)CC[C@@H]1[C@@]24OO3`, the IC50 in assay [1], in assay [2], in assay [3], in assay [4] and in assay [5] was 1700 nM each time.
On to `C[C@H]1[C@@H](NC(=O)COCc2ccc(C(=O)/C=C/c3ccccc3F)cc2)O[C@@H]2O[C@@]3(C)CC[C@H]4[C@H](C)CC[C@@H]1[C@@]24OO3`, for which the half-inhibitory concentration (IC50) in assay [1], in assay [2], in assay [3], in assay [4] and in assay [5] was 90 nM throughout.
In the case of `COc1ccc(/C=C/C(=O)c2ccc(COCC(=O)N[C@H]3O[C@@H]4O[C@@]5(C)CC[C@H]6[C@H](C)CC[C@@H]([C@H]3C)[C@@]46OO5)cc2)c(OC)c1OC`, the IC50 in assay [1], in assay [2], in assay [3], in assay [4] and in assay [5] was 90 nM in each case.
On to `COc1cccc(C(=O)/C=C/c2ccc(COCC(=O)N[C@H]3O[C@@H]4O[C@@]5(C)CC[C@H]6[C@H](C)CC[C@@H]([C@H]3C)[C@@]46OO5)cc2)c1`, for which the IC50 in assay [1], in assay [2], in assay [3], in assay [4] and in assay [5] was 1700 nM each time.
`COc1ccc(OC)c(/C=C/C(=O)c2ccc(COCC(=O)N[C@H]3O[C@@H]4O[C@@]5(C)CC[C@H]6[C@H](C)CC[C@@H]([C@H]3C)[C@@]46OO5)cc2)c1`: the 50% inhibitory concentration (IC50) in assay [1], in assay [2], in assay [3], in assay [4] and in assay [5] was 90 nM in each case.
In the case of `C[C@H]1[C@H](NC(=O)COCc2ccc(C(=O)/C=C/c3ccc(OC(F)(F)F)cc3)cc2)O[C@@H]2O[C@@]3(C)CC[C@H]4[C@H](C)CC[C@@H]1[C@@]24OO3`, the IC50 in assay [1], in assay [2], in assay [3], in assay [4] and in assay [5] was 100 nM each time.
As for `C[C@H]1[C@H](NC(=O)COCc2ccc(C(=O)/C=C/c3ccc(F)cc3)cc2)O[C@@H]2O[C@@]3(C)CC[C@H]4[C@H](C)CC[C@@H]1[C@@]24OO3`, the IC50 in assay [1], in assay [2], in assay [3], in assay [4] and in assay [5] was 100 nM in each case.
For the molecule `C[C@H]1[C@@H](NC(=O)COCc2ccc(/C=C/C(=O)c3ccc(C(F)(F)F)cc3)cc2)O[C@@H]2O[C@@]3(C)CC[C@H]4[C@H](C)CC[C@@H]1[C@@]24OO3`, the half-inhibitory concentration (IC50) in assay [1], in assay [2], in assay [3], in assay [4] and in assay [5] was 1700 nM throughout.
As for `C[C@H]1[C@H](NC(=O)COCc2ccc(C(=O)/C=C/c3cccc(OC(F)(F)F)c3)cc2)O[C@@H]2O[C@@]3(C)CC[C@H]4[C@H](C)CC[C@@H]1[C@@]24OO3`, the IC50 in assay [1], in assay [2], in assay [3], in assay [4] and in assay [5] was 100 nM throughout.
With `C[C@H]1[C@@H](NC(=O)COCc2ccc(/C=C/C(=O)c3ccc(Cl)cc3)cc2)O[C@@H]2O[C@@]3(C)CC[C@H]4[C@H](C)CC[C@@H]1[C@@]24OO3`, the IC50 in assay [1], in assay [2], in assay [3], in assay [4] and in assay [5] was 1700 nM throughout.
For `C[C@H]1[C@H](NC(=O)COCc2ccc(C(=O)/C=C/c3ccc(F)cc3F)cc2)O[C@@H]2O[C@@]3(C)CC[C@H]4[C@H](C)CC[C@@H]1[C@@]24OO3`, the IC50 in assay [1], in assay [2], in assay [3], in assay [4] and in assay [5] was 100 nM throughout.
Regarding `C[C@H]1[C@@H](NC(=O)COCc2ccc(/C=C/C(=O)c3ccccc3)cc2)O[C@@H]2O[C@@]3(C)CC[C@H]4[C@H](C)CC[C@@H]1[C@@]24OO3`, the IC50 in assay [1], in assay [2], in assay [3], in assay [4] and in assay [5] was 1700 nM each time.
In the case of `COc1cccc(/C=C/C(=O)c2ccc(COCC(=O)N[C@H]3O[C@@H]4O[C@@]5(C)CC[C@H]6[C@H](C)CC[C@@H]([C@H]3C)[C@@]46OO5)cc2)c1`, the IC50 in assay [1], in assay [2], in assay [3], in assay [4] and in assay [5] was 90 nM throughout.
Consider `COc1ccc(/C=C/C(=O)c2ccc(COCC(=O)N[C@@H]3O[C@@H]4O[C@@]5(C)CC[C@H]6[C@H](C)CC[C@@H]([C@H]3C)[C@@]46OO5)cc2)c(OC)c1OC`, for which the half-inhibitory concentration (IC50) in assay [1], in assay [2], in assay [3], in assay [4] and in assay [5] was 100 nM each time.
For the molecule `C[C@H]1[C@@H](NC(=O)COCc2ccc(C(=O)/C=C/c3ccc(F)c(F)c3)cc2)O[C@@H]2O[C@@]3(C)CC[C@H]4[C@H](C)CC[C@@H]1[C@@]24OO3`, the half-inhibitory concentration (IC50) in assay [1], in assay [2], in assay [3], in assay [4] and in assay [5] was 90 nM throughout.
For `C[C@H]1[C@@H](NC(=O)COCc2ccc(C(=O)/C=C/c3cccc(OC(F)(F)F)c3)cc2)O[C@@H]2O[C@@]3(C)CC[C@H]4[C@H](C)CC[C@@H]1[C@@]24OO3`, the IC50 in assay [1], in assay [2], in assay [3], in assay [4] and in assay [5] was 90 nM in each case.
As to `C[C@H]1[C@@H](NC(=O)COCc2ccc(/C=C/C(=O)c3cccc(Cl)c3)cc2)O[C@@H]2O[C@@]3(C)CC[C@H]4[C@H](C)CC[C@@H]1[C@@]24OO3`, the IC50 in assay [1], in assay [2], in assay [3], in assay [4] and in assay [5] was 1700 nM each time.
Turning to `C[C@H]1[C@@H](NC(=O)COCc2ccc(/C=C/C(=O)c3ccc(Cl)c(Cl)c3)cc2)O[C@@H]2O[C@@]3(C)CC[C@H]4[C@H](C)CC[C@@H]1[C@@]24OO3`, the IC50 in assay [1], in assay [2], in assay [3], in assay [4] and in assay [5] was 1700 nM each time.
Consider `C[C@H]1[C@@H](NC(=O)COCc2ccc(C(=O)/C=C/c3ccc(F)cc3)cc2)O[C@@H]2O[C@@]3(C)CC[C@H]4[C@H](C)CC[C@@H]1[C@@]24OO3`, for which the IC50 in assay [1], in assay [2], in assay [3], in assay [4] and in assay [5] was 90 nM in each case.
For the molecule `C[C@H]1[C@H](NC(=O)COCc2ccc(C(=O)/C=C/c3cccc(Cl)c3Cl)cc2)O[C@@H]2O[C@@]3(C)CC[C@H]4[C@H](C)CC[C@@H]1[C@@]24OO3`, the IC50 in assay [1], in assay [2], in assay [3], in assay [4] and in assay [5] was 100 nM in each case.
For the molecule `C[C@H]1[C@@H](NC(=O)COCc2ccc(C(=O)/C=C/c3c(Cl)cccc3Cl)cc2)O[C@@H]2O[C@@]3(C)CC[C@H]4[C@H](C)CC[C@@H]1[C@@]24OO3`, the IC50 in assay [1], in assay [2], in assay [3], in assay [4] and in assay [5] was 90 nM throughout.
With `C[C@H]1[C@@H](NC(=O)COCc2ccc(C(=O)/C=C/c3ccc(Cl)cc3)cc2)O[C@@H]2O[C@@]3(C)CC[C@H]4[C@H](C)CC[C@@H]1[C@@]24OO3`, the IC50 in assay [1], in assay [2], in assay [3], in assay [4] and in assay [5] was 90 nM throughout.
